# Data: patent US9302967B2, “Substituted cathechols as inhibitors of IL-4 and IL-5 for the treatment of bronchial asthma” (Council of Scientific & Industrial Research, priority 2011, dated 2016)
# Like-named read-outs stand apart in the source and are kept apart here.
# Assays:
# [1] = mouse, in vivo
# Protocol: (§1) Earlier, LD50 of ICB 14 C6 was derived from in vitro cytotoxicity assay by NRUmethod in 3T3 cells. […] For 90d sub-chronic toxicity study the highest dose selected was one-fourth of the limit dose. Four different doses of ICB14 C6 (47, 23, 12 and 0 [vehicle] mg/kg body weight) were prepared in ground nut oil daily for 5 days a week for 90d.
# Compound 1 of formula I was administered by oral gavage in water using blunt ended steel canula.
# On each working day, all mice were inspected and observations recorded. All the mice were weighed weekly.
# From the day of administering the drug, 30 min cage side observation of the animals were performed every day (5 days a week) till the day of sacrifice. No signs and symptoms of restlessness, perinasal wetness and rapid rate of respiration were observed post administration. […] On the 12th week we found the mouse in a shrunken state as it was kept in the deep freezer.
# [2] = mouse, in vivo; remark: listed apart in the source
# Protocol: as §1
# After 90d of oral treatment with ICB3001, 3 mice in each group were sacrificed and major organs were placed in 10% formalin to prepare histological slides. The slides were stained by haematoxylin-eosin dye.
# [3] = 90 d sub-chronic oral toxicity: immunotoxicity; type: in vivo
# Protocol: Immunotoxicity in mice was performed in accordance to EPA guideline (1998). […] Humoral immunity was measured in terms of HA titer and plaque forming cell assay. […] Cell mediated immunity was measured in terms of % increase in paw volume in mice sensitized with SRBC.
# as §1
# [4] = test system: oral KB carcinoma cell line; conditions: cited from earlier work
# [5] = parameters: species or system mice; conditions: mouse, in vivo
# Protocol: 14 d acute oral toxicity of compound 1 of formula I was performed. Three doses were selected: 47, 23, 12 and 0 mg/kg bw (Vehicle control) of compound 1 of formula I was administered by single oral gavage using blunt ended steel canula.
# Before sacrifice, blood was drawn from the retro-orbital sinus of mice and rats with the help of non-heparinised capillary tubes and hematological parameters were assessed with the help of Automatic Hematology Analyzer (Medonic).
# [6] = mouse, in vivo; remark: listed apart in the source
# Protocol: as §1
# Blood samples were taken from the retro-orbital sinus on day 91 for hematological and clinical chemistry analyses. Clinical analysis included serum creatinine, serum gammaGT, serum uric acid, serum glucose, serum protein, serum bilirubin, serum GOT/AST and serum GPT/ALT. Hematology including white blood cell count was analyzed with the help of Automatic Hematology Analyzer (Medonic).
# The blood left after the hematological studies were allowed to clot for 2 h and serum separated by centrifugation at 3000 rpm for 5 min and subsequently used for clinical biochemistry using kits from Spinreact S.A. (Girona, Spain). Procedural details given in the technical bulletin were followed for the measurement of different serum parameters.
smiles,measurement,setting,value
"C=CCc1ccc(O)c(O)c1 [Compound 1, 4-allyl-benzene-1,2-diol]",cage side observation,[1],All the animals appeared normal
same,feed and water consumption,[1],comparable to sham controls
same,necropsy findings in vital organs,[1],no gross or microscopic lesion
same,mortality,"[1]; 47 mg/kg, 90 d",on the 11th weekend it died
same,heart histology,[2],no significant changes in the histo-architecture
same,kidney histology,[2],no significant changes were observed
same,liver histology,[2],no change in the structure of hepatic cells
same,lung histology,[2]; 47 mg/kg,slight thickening of intercellular septum and migration of polymorphonuclear lymphocytes
same,Bone marrow cell viability %,"[3]; 90 d, 12 mg/kg bw",97.26 ± 0.88%
same,Lymph node lymphocyte viability % (pooled),"[3]; 90 d, 12 mg/kg bw",97.40 ± 0.61%
same,Splenocyte viability %,"[3]; 90 d, 12 mg/kg bw",96.79 ± 0.36%
same,Bone marrow cell viability %,"[3]; 90 d, 23 mg/kg bw",96.80 ± 1.15%
same,Lymph node lymphocyte viability % (pooled),"[3]; 90 d, 23 mg/kg bw",98.28 ± 0.80%
same,Splenocyte viability %,"[3]; 90 d, 23 mg/kg bw",96.56 ± 0.80%
same,Bone marrow cell viability %,"[3]; 90 d, 47 mg/kg bw",95.45 ± 0.31%
same,Lymph node lymphocyte viability % (pooled),"[3]; 90 d, 47 mg/kg bw",98.17 ± 0.05%
same,Splenocyte viability %,"[3]; 90 d, 47 mg/kg bw",96.45 ± 0.62%
same,"Lymph node lymphocyte, splenocytes and bone marrow cell viabilities","[3]; 90 d, all the groups",> 94%
same,B cell function (PFC),"[3]; mouse, in vivo",Dose dependant decrease in B cell function
same,Total IgA,"[3]; mouse, in vivo, 12 mg/kg",264.25 ± 28.6 ng/mL
same,Total IgE,"[3]; mouse, in vivo, 12 mg/kg",0.69 ± 0.115
same,Total IgG,"[3]; mouse, in vivo, 12 mg/kg",12.98 ± 0.53 mg/mL
same,Total IgM,"[3]; mouse, in vivo, 12 mg/kg",6.65 ± 0.13
same,DTH response (% increase in paw volume),"[3]; mouse, in vivo, 12 mg/kg, 90 d",12.12 ± 2.96%
same,HA tire (reciprocal of the last dilution showing positive reaction),"[3]; mouse, in vivo, 12 mg/kg, 90 d",1280
same,PFC,"[3]; mouse, in vivo, 12 mg/kg, 90 d",5533 ± 437 per 10^6lymphocytes
same,Total IgA,"[3]; mouse, in vivo, 23 mg/kg",207.25 ± 9.7 ng/mL
same,Total IgE,"[3]; mouse, in vivo, 23 mg/kg",0.74 ± 0.23
same,Total IgG,"[3]; mouse, in vivo, 23 mg/kg",15.21 ± 0.31 mg/mL
same,Total IgM,"[3]; mouse, in vivo, 23 mg/kg",0.57 ± 0.17
same,DTH response (% increase in paw volume),"[3]; mouse, in vivo, 23 mg/kg, 90 d",11.55 ± 3.77%
same,HA tire (reciprocal of the last dilution showing positive reaction),"[3]; mouse, in vivo, 23 mg/kg, 90 d",640
same,PFC,"[3]; mouse, in vivo, 23 mg/kg, 90 d",4911 ± 873 per 10^6lymphocytes
same,Total IgA,"[3]; mouse, in vivo, 47 mg/kg",167 ± 2.12 ng/mL
same,Total IgE,"[3]; mouse, in vivo, 47 mg/kg",0.65 ± 0.09
same,Total IgG,"[3]; mouse, in vivo, 47 mg/kg",6.11 ± 0.25 mg/mL
same,Total IgM,"[3]; mouse, in vivo, 47 mg/kg",1.02 ± 0.30
same,DTH response (% increase in paw volume),"[3]; mouse, in vivo, 47 mg/kg, 90 d",11.28 ± 3.69%
same,HA tire (reciprocal of the last dilution showing positive reaction),"[3]; mouse, in vivo, 47 mg/kg, 90 d",320
same,PFC,"[3]; mouse, in vivo, 47 mg/kg, 90 d",1849 ± 780 per 10^6lymphocytes
same,cell cycle arrest and apoptosis,[4],induce cell cycle arrest and apoptosis
same,GRAN,[5]; 12 mg/kg,9.82 ± 3.49%
same,HCT,[5]; 12 mg/kg,39.72 ± 5.27%
same,HGB,[5]; 12 mg/kg,12.6 ± 2.50 g/dL
same,LYMF,[5]; 12 mg/kg,8.54 ± 14.39%
same,MCV,[5]; 12 mg/kg,41.76 ± 1.268 μm^3
same,MPV,[5]; 12 mg/kg,6.96 ± 0.33 μm^3
same,PLT,[5]; 12 mg/kg,588 ± 198 10^3/mm^3
same,RBC,[5]; 12 mg/kg,9.52 ± 1.313 ×10^6/mm^3
same,WBC,[5]; 12 mg/kg,9.1 ± 0.86 ×10^3/mm^3
same,GRAN,[5]; 23 mg/kg,10.8 ± 2.30%
same,HCT,[5]; 23 mg/kg,42.05 ± 7.86%
same,HGB,[5]; 23 mg/kg,13.22 ± 1.72 g/dL
same,LYMF,[5]; 23 mg/kg,2.12 ± 3.45%
same,MCV,[5]; 23 mg/kg,41.675 ± 2.069 μm^3
same,MPV,[5]; 23 mg/kg,6.95 ± 0.36 μm^3
same,PLT,[5]; 23 mg/kg,518 ± 40 10^3/mm^3
same,RBC,[5]; 23 mg/kg,10.05 ± 1.477 ×10^6/mm^3
same,WBC,[5]; 23 mg/kg,13.52 ± 2.71 ×10^3/mm^3
same,GRAN,[5]; 47 mg/kg,9.46 ± 2.33%
same,HCT,[5]; 47 mg/kg,39.12 ± 1.76%
same,HGB,[5]; 47 mg/kg,13.2 ± 0.65 g/dL
same,LYMF,[5]; 47 mg/kg,1.0 ± 0.87%
same,MCV,[5]; 47 mg/kg,40.45 ± 1.126 μm^3
same,MPV,[5]; 47 mg/kg,7.1 ± 0.32 μm^3
same,PLT,[5]; 47 mg/kg,476.5 ± 124^ 10^3/mm^3
same,RBC,[5]; 47 mg/kg,9.74 ± 0.749 ×10^6/mm^3
same,WBC,[5]; 47 mg/kg,11.02 ± 2.61 ×10^3/mm^3
same,"Activities of AST, ALT and gammaGT enzymes vs normal range",[6],within the normal range
same,Bilirubin,[6]; 12 mg/kg,0.91 ± 0.47 mg/dL
same,Creatinine,[6]; 12 mg/kg,1.03 ± 0.48 mg/dL
same,GOT/AST,[6]; 12 mg/kg,12.25 ± 2.18 U/L
same,GPT/ALT,[6]; 12 mg/kg,8.56 ± 3.79 U/L
same,Glucose,[6]; 12 mg/kg,79.89 ± 22.82 mg/dL
same,LDH,[6]; 12 mg/kg,175.3 ± 18 U/L
same,Total protein,[6]; 12 mg/kg,8.63 ± 1.81 g/dL
same,Uric acid,[6]; 12 mg/kg,6.05 ± 3.9 mg/dL
same,gammaGT,[6]; 12 mg/kg,12.73 ± 6.74 U/L
same,Bilirubin,[6]; 23 mg/kg,0.37 ± 012 mg/dL
same,Creatinine,[6]; 23 mg/kg,1.10 ± 0.65 mg/dL
same,GOT/AST,[6]; 23 mg/kg,13.56 ± 6.88 U/L
same,GPT/ALT,[6]; 23 mg/kg,12.84 ± 7.9 U/L
same,Glucose,[6]; 23 mg/kg,61.66 ± 13.08 mg/dL
same,LDH,[6]; 23 mg/kg,198.6 ± 27 U/L
same,Total protein,[6]; 23 mg/kg,6.52 ± 2.61 g/dL
same,Uric acid,[6]; 23 mg/kg,7.15 ± 0.62 mg/dL
same,gammaGT,[6]; 23 mg/kg,15.29 ± 5.38 U/L
same,Bilirubin,[6]; 47 mg/kg,0.54 ± 0.39 mg/dL
same,Creatinine,[6]; 47 mg/kg,1.36 ± 0.56 mg/dL
same,GOT/AST,[6]; 47 mg/kg,5.30 ± 1.55 U/L
same,GPT/ALT,[6]; 47 mg/kg,5.71 ± 9.89 U/L
same,Glucose,[6]; 47 mg/kg,86.42 ± 6.39 mg/dL
same,LDH,[6]; 47 mg/kg,210.5 ± 25 U/L
same,Total protein,[6]; 47 mg/kg,7.78 ± 1.37 g/dL
same,Uric acid,[6]; 47 mg/kg,5.59 ± 1.26 mg/dL
same,gammaGT,[6]; 47 mg/kg,15.66 ± 2.63 U/L
